Laboratory results published in patent publication US11519025B2, “Cation chelator hot start” (priority 2014, dated 2022).
“And” between values parts separate entries of the source, which are not always exact repeats. Equal values may be shown once. “Also recorded” adds a separate entry of the source. Where a name gives a salt, the structure may show the parent alone. Read-outs that look alike come from different tables or passages of the source.

Key:
[1] = vendor product list; cited from earlier work
[2] = target: DNase, a nuclease isolated from bovine pancreas (Bos taurus, UniProt P00639); conditions: for DNase enzymatic activity: 100 μM EDTA
Chain of DNase, a nuclease isolated from bovine pancreas (P00639 23-282): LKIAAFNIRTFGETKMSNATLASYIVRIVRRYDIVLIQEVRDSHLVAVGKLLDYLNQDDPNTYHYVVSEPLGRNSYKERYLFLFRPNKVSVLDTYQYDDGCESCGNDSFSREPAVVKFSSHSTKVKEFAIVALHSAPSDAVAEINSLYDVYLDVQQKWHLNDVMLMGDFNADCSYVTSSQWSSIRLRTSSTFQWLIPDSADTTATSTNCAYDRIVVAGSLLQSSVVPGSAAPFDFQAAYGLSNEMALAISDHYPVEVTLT

[3] = pH-dependency of the binding constants of chelating agents; format: physicochemical; conditions: worked out from known pK values from literature (FIG. 1)
Method: Tris buffer is routinely used in PCR buffers. At room temperature the pH of a Tris based PCR buffer is 8.7. […] This means that at 95° C. the pH value is 6.6. In order to select a chelating agent for PCR experiments, the pH-dependency of the binding constants of three different chelating agents, NTA; EDTA and EGTA, was investigated. Known pK values from literature for every chelating agent were used to determine the pH dependency of the complex formation (FIG. 1).

[4] = target: T1, chemically inactivated Taq DNA polymerase (Thermus aquaticus, UniProt P19821); experiment: Amplification of bisulphite-treated DNA in the presence of EGTA and different magnesium concentrations; format: biochemical; conditions: for Ct / Ct Average: 5 mM EGTA
T1 sequence (P19821 whole entry): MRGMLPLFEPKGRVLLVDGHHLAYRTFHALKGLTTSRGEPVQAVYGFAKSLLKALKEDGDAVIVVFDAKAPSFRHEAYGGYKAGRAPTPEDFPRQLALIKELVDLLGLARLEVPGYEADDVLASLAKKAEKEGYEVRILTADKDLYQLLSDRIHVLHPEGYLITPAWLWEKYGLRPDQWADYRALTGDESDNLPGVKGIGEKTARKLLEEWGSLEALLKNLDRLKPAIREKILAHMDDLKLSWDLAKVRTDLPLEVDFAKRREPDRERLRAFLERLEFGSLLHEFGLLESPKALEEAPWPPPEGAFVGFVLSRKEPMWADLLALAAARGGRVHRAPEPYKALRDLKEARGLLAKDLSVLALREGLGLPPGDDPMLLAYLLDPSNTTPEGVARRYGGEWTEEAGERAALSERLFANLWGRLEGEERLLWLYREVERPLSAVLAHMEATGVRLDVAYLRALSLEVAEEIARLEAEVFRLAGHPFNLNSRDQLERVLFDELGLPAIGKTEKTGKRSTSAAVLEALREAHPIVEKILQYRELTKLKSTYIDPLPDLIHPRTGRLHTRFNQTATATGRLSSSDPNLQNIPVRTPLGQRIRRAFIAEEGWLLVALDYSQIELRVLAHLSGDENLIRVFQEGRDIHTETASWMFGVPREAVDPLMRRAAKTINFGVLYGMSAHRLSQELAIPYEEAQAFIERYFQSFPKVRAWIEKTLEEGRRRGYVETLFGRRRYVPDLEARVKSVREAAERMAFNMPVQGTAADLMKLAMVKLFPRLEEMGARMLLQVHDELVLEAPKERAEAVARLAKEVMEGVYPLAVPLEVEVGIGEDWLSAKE
Method: In the follow-up experiment said primers and said bisulphite-treated DNA were used in amplification reactions wherein the magnesium dependency was analyzed.
The final concentration of EGTA was 5 mM. The HRM master mix was supplemented with 0.1 0.6 mM magnesium.
Two sets of reactions consisting of duplicates were used in the amplification experiment. One set of samples was incubated on ice for 120 min, whereas the other set of samples was incubated at room temperature for 120 min. Subsequently the samples were analyzed using the Rotor-Gene Q 5plex HRM System.

Taq = Taq (Thermus aquaticus, UniProt P19821); experiment: Endpoint PCR (HugI, 1.2 kb genomic target) with and without EGTA, agarose gel; format: biochemical; conditions: 5 mM EGTA, 5-10 mM Mg, compared to reactions without EGTA
Chain of Taq (P19821 whole entry): as above
Method: An amplification experiment was performed using a test system that is known to be prone to produce non-specific side products. A genomic DNA sequence of 1.2 kb was the target sequence. Primers HugA and HugB were used.
Reactions with and without EGTA were performed in parallel. In set A, the magnesium concentration was varied in 1 mM steps, start and end point were 5 and 10 mM respectively. In set B, the start point was 0.5 mM and the end point was 4 mM Mg. The setup is described in Table 2.
The amplification program was as follows (Table 3):
35 cycles were performed.

[5] = target: T1, chemically inactivated Taq DNA polymerase; experiment: Amplification of bisulphite-treated DNA in the presence of different EGTA concentrations (residual activity of chemically inactivated Taq, Ct and HRM melting curves); format: biochemical
Description: The following experiments employed a system to detect the formation of primer dimers in a PCR reaction mixture using residual active Taq polymerase molecules. Herein, bisulphite-treated DNA is used as a template. As a consequence of the bisulphite treatment, which entails the chemical modification of non-methylated cytosines to uracil), said template only consists of three bases. Since bisulphite treatment only works when using single stranded DNA, the majority of DNA after completion of said bisulphite treatment is single stranded. Primers that are used for amplification of such DNA sequences are characterized by reduced complexity since they only consist of three bases.
Genomic DNA was propagated using the Qiagen REPLI g Midi Kit according to the manufacturer's protocol. Subsequently, 1 μg of said genomic DNA was used in 10 independent reactions wherein the DNA was subjected to bisulphite treatment using the EpiTect Bisulfite Kit followed by purification. The resulting DNA of each reaction was pooled and used in the subsequent amplification reactions.
The final EGTA concentration was between 0.25 and 10 mM.
One set of samples consisting of two reactions was incubated on ice for 120 min, whereas the other set of samples also consisting of two reactions was incubated at room temperature for 120 min. Subsequently both sets of samples were analyzed using the Rotor-Gene Q 5plex HRM System.

[6] = for pH of Tris based PCR buffer: room temperature
[7] = 0 mM MgCl2 added, on ice 120 min
[8] = 0 mM MgCl2 added, room temperature 120 min
[9] = 0.1 mM MgCl2, room temperature 120 min
[10] = 0.2 mM MgCl2, room temperature 120 min
[11] = 0.3 mM MgCl2, room temperature 120 min
[12] = 0.4 mM MgCl2, room temperature 120 min
[13] = 0.5 mM MgCl2, room temperature 120 min
[14] = 0.6 mM MgCl2, room temperature 120 min
[15] = 0.25 mM EGTA, room temperature 120 min
[16] = 0.5 mM EGTA, room temperature 120 min
[17] = 0.75 mM EGTA, room temperature 120 min
[18] = 1 mM EGTA, room temperature 120 min
[19] = 1.5 mM EGTA, room temperature 120 min
[20] = 2 mM EGTA, room temperature 120 min
[21] = 4 mM EGTA, room temperature 120 min
[22] = 10 mM EGTA, room temperature 120 min

Compound: OCC(CO)(CO)NCCCNC(CO)(CO)CO [Buffer 4, BIS-TRIS propane]
- pKa [1]: 6.80

Compound: O=C(O)CN(CCOCCOCCN(CC(=O)O)CC(=O)O)CC(=O)O [EGTA, ethylene glycol bis(amino ethyl) N, N′-tetra acetic acid]
- DNase activity ([2]; 100 μM EGTA, 42° C.): largely restored DNase activity
- DNA degradation by DNase ([2]; 100 μM EGTA, on ice, 0.01, 0.1 and 1 U DNase, 5 and 15 min): almost complete inhibition of degradation
- DNA degradation by DNase ([2]; 100 μM EGTA, on ice, 1 U DNase for 15 min, compared to the sample without EGTA): degradation is significantly reduced
- correlation between pH value and binding constant [3]: strong correlation between pH value and binding constant
- Ct [4, 7]: 28.74 and 28.89
- Ct Average [4, 7]: 28.82
- Ct [4, 8]: 28.86 and 28.67
- Ct Average [4, 8]: 28.77
- Ct ([4]; 0.1 mM MgCl2, on ice 120 min): 27.82 and 27.79
- Ct Average ([4]; 0.1 mM MgCl2, on ice 120 min): 27.81
- Ct [4, 9]: 27.53 and 27.71
- Ct Average [4, 9]: 27.62
- Ct ([4]; 0.2 mM MgCl2, on ice 120 min): 26.85 and 27.39
- Ct Average ([4]; 0.2 mM MgCl2, on ice 120 min): 27.12
- Ct [4, 10]: 26.69 and 27.27
- Ct Average [4, 10]: 26.98
- Ct ([4]; 0.3 mM MgCl2, on ice 120 min): 26.25 and 26.51
- Ct Average ([4]; 0.3 mM MgCl2, on ice 120 min): 26.38
- Ct [4, 11]: 26.14 and 26.64
- Ct Average [4, 11]: 26.39
- Ct ([4]; 0.4 mM MgCl2, on ice 120 min): 26.01 and 26.14
- Ct Average ([4]; 0.4 mM MgCl2, on ice 120 min): 26.08
- Ct [4, 12]: 26.06 and 26.24
- Ct Average [4, 12]: 26.15
- Ct ([4]; 0.5 mM MgCl2, on ice 120 min): 25.81 and 25.89
- Ct Average ([4]; 0.5 mM MgCl2, on ice 120 min): 25.85
- Ct [4, 13]: 25.82 and 25.86
- Ct Average [4, 13]: 25.84
- Ct ([4]; 0.6 mM MgCl2, on ice 120 min): 25.61 and 25.56
- Ct Average ([4]; 0.6 mM MgCl2, on ice 120 min): 25.59
- Ct [4, 14]: 25.55 and 25.49
- Ct Average [4, 14]: 25.52
- specificity of amplification ([4]; EGTA up to a final concentration of 5 mM): increased specificity
- specificity of PCR (side products on agarose gel) (Taq): more specific as of having less side products; also recorded: results in specific PCR product
- Ct ([5]; 0.25 mM EGTA, on ice 120 min): 25.34 and 25.51
- Ct Average ([5]; 0.25 mM EGTA, on ice 120 min): 25.43
- Ct [5, 15]: 25.2 and 25.42
- Ct Average [5, 15]: 25.31
- Ct ([5]; 0.5 mM EGTA, on ice 120 min): 25.53 and 25.62
- Ct Average ([5]; 0.5 mM EGTA, on ice 120 min): 25.58
- Ct [5, 16]: 25.55 and 25.47
- Ct Average [5, 16]: 25.51
- Ct ([5]; 0.75 mM EGTA, on ice 120 min): 25.78 and 25.88
- Ct Average ([5]; 0.75 mM EGTA, on ice 120 min): 25.83
- Ct [5, 17]: 25.91 and 25.8
- Ct Average [5, 17]: 25.86
- Ct ([5]; 1 mM EGTA, on ice 120 min): 26.59 and 26.61
- Ct Average ([5]; 1 mM EGTA, on ice 120 min): 26.55
- Ct [5, 18]: 26.47 and 26.5
- Ct Average [5, 18]: 26.49
- Ct ([5]; 1.5 mM EGTA, on ice 120 min): 28.17 and 28.21
- Ct Average ([5]; 1.5 mM EGTA, on ice 120 min): 28.19
- Ct [5, 19]: 27.76 and 27.88
- Ct Average [5, 19]: 27.82
- Ct ([5]; 2 mM EGTA, on ice 120 min): 30.16 and 28.53
- Ct Average ([5]; 2 mM EGTA, on ice 120 min): 29.35
- Ct [5, 20]: 29.9 and 29.71
- Ct Average [5, 20]: 29.81
- Ct ([5]; 4 mM EGTA, on ice 120 min): 38.37 and 38.14
- Ct Average ([5]; 4 mM EGTA, on ice 120 min): 38.26
- Ct [5, 21]: 37.32 and 37.02
- Ct Average [5, 21]: 37.13
- Ct [5, 22]: 35.18 and 34
- Ct Average [5, 22]: 34.59
- success of amplification ([5]; EGTA concentrations exceeded 2 mM): successful amplification was prevented
- specificity of amplification and effect on Ct ([5]; EGTA up to a final concentration of 0.75 mM): increase of specificity without affecting the Ct values

Compound: O=S(=O)(O)CCN1CCN(CCO)CC1 [Buffer 8, HEPES sodium salt]
- pKa [1]: 7.50

Compound: O=S(=O)(O)CCN1CCN(CCS(=O)(=O)O)CC1 [Buffer 17, PIPES]
- pKa [1]: 6.80

Compound: NC(=O)CNCCS(=O)(=O)O [Buffer 1, ACES]
- pKa [1]: 6.80

Compound: O=S(=O)(O)CCCN1CCN(CCO)CC1 [Buffer 5, EPPS]
- pKa [1]: 8.00

Compound: O=S(=O)([O-])CCCNC(CO)(CO)CO.[Na+] [Buffer 23, TAPS sodium salt]
- pKa [1]: 8.40

Compound: NC(CO)(CO)CO [Tris]
- pH of Tris buffer ([6]; 95° C.): 6.6
- pH of Tris based PCR buffer [6]: 8.7
- pH of Tris based PCR buffer ([6]; listed as Tris buffer): around 8.7

Compound: O=C(O)CN(CCN(CC(=O)O)CC(=O)O)CC(=O)O [EDTA, ethylene di amine tetra acetic acid]
- DNase enzymatic activity ([2]; 42° C.): restoring enzymatic activity
- DNase enzymatic activity ([2]; on ice, 1, 0.5, 0.1 U DNase): largely reduced enzymatic activity

Compound: O=S(=O)(O)CCN1CCN(CCO)CC1 [Buffer 7, HEPES]
- pKa [1]: 7.50

Compound: O=S(=O)(O)CCNC(CO)(CO)CO [Buffer 24, TES]
- pKa [1]: 7.50

Compound: O=S(=O)(O)CCCNC(CO)(CO)CO [Buffer 22, TAPS]
- pKa [1]: 8.40

Compound: O=S(=O)(O)CCN(CCO)CCO [Buffer 2, BES]
- pKa [1]: 7.10
